In ChEMBL document CHEMBL1201862, “PubChem BioAssay data set” (2004):
Blank lines part the entries; values can stand above or below the compound they belong to. The source made the active and inactive calls.

Legend:
[1] = tested on: Streptococcus sp. 'group A'; assay: Streptococcus pyogenes SK(-)GAS viability under kanamycin – luminescence, BacTiterGlo, confirmation, counter-screen for streptokinase expression inhibitor project, dose response (AID 1900); format: functional, organism-based; settings: read-out: EC50
Large T antigen = Large T antigen (Simian virus 40, UniProt P03070); format: functional, Betapolyomavirus macacae;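 further: Confirmatory-stage PubChem screen for compounds that inhibit SV40 T antigen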
Streptococcus = assay: GAS UMAA2166 growth inhibition – luminescence, BacTiterGlo, counter-screen for streptokinase expression inhibitor project, dose response (AID 1915); format: functional, organism-based;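 further: potency for reduction of bacterial viability or growth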
[2] = biological target: Glucose-6-phosphate 1-dehydrogenase (Homo sapiens, UniProt P11413); assay: inhibition of Homo sapiens G6PD, dose series – biochemical, fluorescence, selectivity assay for P. falciparum G6PD inhibitor project, dose response (AID 504792); format: functional
[3] = biological target: 1-acylglycerol-3-phosphate O-acyltransferase ABHD5/Perilipin-5 (Homo sapiens, UniProt Q00G26+Q8WTS1); assay: Luminescence-based biochemical high throughput dose response assay for inhibitors of the interaction of the lipase co-activator protein, abhydrolase domain containing 5 (ABHD5) with perilipin-5 (MLDP; PLIN5) (2K validation set). [Related pubchem assays (depositor defined):AID493035, AID493241]
Perilipin-1/ABHD5 = Perilipin-1/ABHD5 (Homo sapiens, UniProt O60240+Q8WTS1); assay: Luminescence-based biochemical high throughput dose response assay for inhibitors of the interaction of the lipase co-activator protein, abhydrolase domain containing 5 (ABHD5) with perilipin-1 (PLIN1) (2K validation set). [Related pubchem assays (depositor defined):AID493027, AID493057]
[4] = biological target: Phosphoethanolamine/phosphocholine phosphatase (Homo sapiens, UniProt Q8TCT1); assay: SAR assay for compounds that inhibit PHOSPHO1. [Related pubchem assays (depositor defined):AID1545, AID1565, AID1574]
Hexokinase HKDC1 = biological target: T1, Hexokinase HKDC1 (Homo sapiens, UniProt Q2TB90); assay: activation of HKDC1 glucose phosphorylation – biochemical, W721R variant, dose response (AID 504730); format: functional
T1 sequence (Q2TB90 whole entry): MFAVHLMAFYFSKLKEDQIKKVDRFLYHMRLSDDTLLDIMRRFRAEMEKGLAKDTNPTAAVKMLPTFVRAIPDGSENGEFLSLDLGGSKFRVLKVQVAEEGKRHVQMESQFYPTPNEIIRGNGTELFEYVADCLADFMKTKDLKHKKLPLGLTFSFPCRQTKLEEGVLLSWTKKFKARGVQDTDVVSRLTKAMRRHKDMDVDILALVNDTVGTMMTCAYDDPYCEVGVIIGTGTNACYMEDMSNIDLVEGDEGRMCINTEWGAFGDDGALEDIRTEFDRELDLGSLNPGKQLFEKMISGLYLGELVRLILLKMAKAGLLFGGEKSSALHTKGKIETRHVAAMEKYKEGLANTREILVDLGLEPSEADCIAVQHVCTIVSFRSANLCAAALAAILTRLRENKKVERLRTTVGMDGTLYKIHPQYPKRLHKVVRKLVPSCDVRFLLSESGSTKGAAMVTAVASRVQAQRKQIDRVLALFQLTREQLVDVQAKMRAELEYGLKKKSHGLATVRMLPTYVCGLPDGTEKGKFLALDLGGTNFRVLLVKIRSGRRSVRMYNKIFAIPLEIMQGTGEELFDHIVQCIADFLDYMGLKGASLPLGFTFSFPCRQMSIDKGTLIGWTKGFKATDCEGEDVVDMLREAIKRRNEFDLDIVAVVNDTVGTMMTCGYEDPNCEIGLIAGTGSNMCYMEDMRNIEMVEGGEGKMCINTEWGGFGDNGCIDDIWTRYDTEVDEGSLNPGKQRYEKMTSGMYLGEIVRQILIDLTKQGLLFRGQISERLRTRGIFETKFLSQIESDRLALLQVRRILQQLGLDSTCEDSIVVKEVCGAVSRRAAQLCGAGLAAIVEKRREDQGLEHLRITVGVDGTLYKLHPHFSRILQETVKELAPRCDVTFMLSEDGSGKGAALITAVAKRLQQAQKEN

[5] = biological target: Eukaryotic translation initiation factor 4E (Mus musculus, UniProt P63073); assay: blockers of eIF4G binding by eIF4E – biochemical, TR-FRET, dose response (AID 855); format: functional;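 further: potency for disrupting eIF4E binding to eIF4GI seen as loss of FRET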
Hexokinase-1 = biological target: T2, Hexokinase-1 (Homo sapiens, UniProt P19367); assay: HK1 enzyme activation by HKDC1 hits – biochemical, selectivity assay for HKDC1 activator project, dose response (AID 504762); format: functional
T2 sequence (P19367 whole entry): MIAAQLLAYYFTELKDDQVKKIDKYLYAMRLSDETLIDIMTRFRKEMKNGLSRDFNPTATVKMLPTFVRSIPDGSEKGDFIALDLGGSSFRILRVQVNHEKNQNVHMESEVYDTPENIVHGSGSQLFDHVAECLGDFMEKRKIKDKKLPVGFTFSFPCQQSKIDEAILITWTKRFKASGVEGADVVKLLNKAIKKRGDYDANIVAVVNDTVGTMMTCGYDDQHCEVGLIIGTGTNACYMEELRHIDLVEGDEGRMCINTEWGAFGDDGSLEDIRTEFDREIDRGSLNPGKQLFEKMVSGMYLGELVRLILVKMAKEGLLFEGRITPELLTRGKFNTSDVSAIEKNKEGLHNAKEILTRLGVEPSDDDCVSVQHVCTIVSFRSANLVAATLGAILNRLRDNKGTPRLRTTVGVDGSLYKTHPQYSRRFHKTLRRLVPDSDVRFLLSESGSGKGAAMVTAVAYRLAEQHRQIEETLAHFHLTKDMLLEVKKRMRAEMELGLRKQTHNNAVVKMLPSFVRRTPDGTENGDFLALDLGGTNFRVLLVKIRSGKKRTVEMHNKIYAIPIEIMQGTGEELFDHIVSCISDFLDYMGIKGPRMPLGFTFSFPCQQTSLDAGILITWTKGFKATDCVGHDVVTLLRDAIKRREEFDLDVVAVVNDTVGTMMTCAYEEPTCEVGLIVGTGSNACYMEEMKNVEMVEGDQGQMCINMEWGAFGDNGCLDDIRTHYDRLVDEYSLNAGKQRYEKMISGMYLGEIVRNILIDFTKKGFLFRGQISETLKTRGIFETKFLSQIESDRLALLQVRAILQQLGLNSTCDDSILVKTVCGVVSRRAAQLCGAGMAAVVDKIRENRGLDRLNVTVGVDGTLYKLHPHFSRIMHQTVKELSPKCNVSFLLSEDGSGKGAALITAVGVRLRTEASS

Beta-arrestin-1 = Beta-arrestin-1 (Homo sapiens, UniProt P49407); assay: beta-arrestin/AP2 interaction blockers, potency – biochemical, cherry pick 1, beta2-adaptin appendage, flow cytometry, dose response (AID 588783); format: functional
[6] = biological target: Voltage-gated inwardly rectifying potassium channel KCNH2 (Homo sapiens, UniProt Q12809); settings: Potency;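 further: confirmatory quantitative high-throughput screen measuring inhibition of hERG channel activity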
[7] = biological target: T3, Heat shock factor protein 1 (Mus musculus, UniProt P38532); assay: decrease of HSF1-responsive luciferase luminescence – cell-based, NIH3T3, dose retest, confirmation (AID 2382); format: functional;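 further: NIH3T3 fibroblasts with HSF1-driven luciferase reporter stressed by proteasome inhibitor MG132; luminescence from HSF1-driven luciferase expression after 8 hours of MG132 stress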
T3 sequence (P38532 whole entry): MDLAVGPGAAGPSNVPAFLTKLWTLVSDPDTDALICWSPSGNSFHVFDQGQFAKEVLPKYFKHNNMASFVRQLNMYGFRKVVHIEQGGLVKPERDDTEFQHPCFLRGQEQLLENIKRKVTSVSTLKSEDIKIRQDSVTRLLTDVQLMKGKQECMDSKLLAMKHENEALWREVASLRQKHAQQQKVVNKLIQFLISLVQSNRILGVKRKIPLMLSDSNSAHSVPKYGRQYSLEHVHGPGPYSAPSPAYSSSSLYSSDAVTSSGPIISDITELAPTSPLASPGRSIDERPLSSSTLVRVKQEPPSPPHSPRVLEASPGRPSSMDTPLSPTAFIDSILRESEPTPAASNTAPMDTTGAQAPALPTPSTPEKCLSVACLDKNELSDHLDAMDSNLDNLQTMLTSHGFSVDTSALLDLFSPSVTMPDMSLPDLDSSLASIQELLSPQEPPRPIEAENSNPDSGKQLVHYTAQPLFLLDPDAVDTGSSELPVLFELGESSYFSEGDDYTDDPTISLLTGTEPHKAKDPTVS

Jurkat = assay: blockers of NF-kB activation in T cells – Jurkat, luciferase reporter, luminescence, B- and T-cell, dose response (AID 489004); format: functional, cell-based; settings: Homo sapiens;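 further: NF-kB luciferase reporter Jurkat cells stimulated with PMA plus ionomycin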
[8] = HEK-293T viability loss, compound-treated – cell-based, uHTS hits, cytotoxicity control for B/T-cell NF-kB inhibitor project, dose response (AID 489019); format: functional;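 further: IC50 reflects cytotoxicity as loss of cell viability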
[9] = biological target: T4, Microphthalmia-associated transcription factor (Homo sapiens, UniProt O75030); assay: reducers of TRPM1 reporter luminescence, concentration series – cell-based, SK-MEL-5, cherry-picked, set 3, MITF inhibitor project, dose response (AID 493073); format: functional;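 further: SK-MEL-5 melanoma cells with luciferase driven by the MITF target TRPM1 promoter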
T4 sequence (O75030 whole entry): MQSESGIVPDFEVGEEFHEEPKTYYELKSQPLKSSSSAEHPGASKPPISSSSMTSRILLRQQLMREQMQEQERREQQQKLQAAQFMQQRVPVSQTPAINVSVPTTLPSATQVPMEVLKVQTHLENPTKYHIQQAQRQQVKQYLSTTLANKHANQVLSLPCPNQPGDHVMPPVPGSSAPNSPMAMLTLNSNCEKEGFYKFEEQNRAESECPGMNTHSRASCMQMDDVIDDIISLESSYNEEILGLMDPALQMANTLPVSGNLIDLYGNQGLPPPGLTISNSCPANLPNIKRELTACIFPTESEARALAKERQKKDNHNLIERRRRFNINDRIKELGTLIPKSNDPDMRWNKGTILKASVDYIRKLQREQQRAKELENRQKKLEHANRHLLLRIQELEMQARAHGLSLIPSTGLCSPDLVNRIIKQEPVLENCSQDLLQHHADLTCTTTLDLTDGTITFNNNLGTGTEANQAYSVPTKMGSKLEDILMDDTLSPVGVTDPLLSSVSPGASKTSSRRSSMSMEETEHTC

A-375 [10] = assay: MITF: Counter assay: A375 proliferation Measured in Cell-Based System Using Plate Reader - 2084-03_Inhibitor_Dose_DryPowder_Activity. [Related pubchem assays (depositor defined):AID488944]; format: functional; settings: Homo sapiens
A-375 [11] = assay: proliferation inhibition in MITF-low A375 cells – cell-based, cherry-pick samples, set 2, counter-screen for MITF modulator project, dose response (AID 540335); format: functional; settings: Homo sapiens
Paired box protein Pax-8 = Paired box protein Pax-8 (Homo sapiens, UniProt Q06710); assay: PAX8 transcriptional activity inhibition in RMG-I – RMG-I cells, luciferase, cherry-pick, dose response (AID 687027); format: functional, cell-based;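 further: luciferase reporter driven by Pax8 target thyroperoxidase promoter measured by SteadyGlo luminescence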
[12] = inhibitors acting on PAX2 in cells – cell-based, plate reader, dry powder samples, selectivity assay for PAX8 inhibitor project, dose response (AID 743048); format: functional;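 further: HEK293 cells carrying a WT1 promoter luciferase reporter driven by expressed Pax2; potency is for inhibition of Pax2 driven reporter signal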
[13] = COV362 cell viability loss – plate reader, dry powder, SA12, cytotoxicity control for PAX8 inhibitor project, dose response (AID 743144); format: functional, cell-based
[14] = PAX5 cellular inhibition readout – cell-based, plate reader, dry powder samples, selectivity assay for PAX8 inhibitor project, dose response (AID 743047); format: functional;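 further: HEK293 cells carrying a Pax5 driven CD19 promoter luciferase reporter; potency of inhibitors that lower reporter luminescence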
[15] = toxicity toward HepG2 liver cells – cell-based, plate reader, cherry-pick, antagonist series, cytotoxicity control, dose response (AID 743416); format: functional
[16] = IGROV1 cell killing – plate reader, dry powder samples, PAX8 inhibitor project, dose response (AID 743043); format: functional, cell-based; settings: IGROV-1
[17] = blockers of bursicon-stimulated LGR2 cAMP reporter – cell-based, HEK293, CRE-luciferase reporter, cherry pick, set 2, dose response (AID 743343); format: functional;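 further: transfected cells were stimulated with diluted bursicon conditioned medium after compound addition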
[18] = COV434 cell viability loss – plate reader, dry powder, SA7, cytotoxicity control for PAX8 inhibitor project, dose response (AID 743145); format: functional, cell-based
[19] = OV-90 cell viability loss – plate reader, dry powder, SA8, PAX8 inhibitor project, dose response (AID 743149); format: functional, cell-based
[20] = blockade of melanocortin 4 receptor signaling – cell-based, plate reader, cherry pick, counter-screen for LGR2 antagonist project, dose response (AID 743444); format: functional;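 further: transfected HEK 293 cells stimulated with alpha-MSH peptide; potency of inhibitors of the alpha-MSH evoked signal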
[21] = PAX8-dependent cell viability loss – plate reader, dry powder, dose response (AID 743049); format: functional, cell-based
[22] = viability loss in HEK293 cells – cell-based, plate reader, cherry-picked samples, cytotoxicity control, dose response (AID 743446); format: functional
[23] = biological target: sn-1-specific diacylglycerol lipase ABHD11 (Mus musculus, UniProt Q8K4F5); assay: Late stage assay provider results from the probe development effort to identify inhibitors of LYPLA1 and LYPLA2: Gel-based Activity-Based Protein Profiling (ABPP) IC50 for off-target ABHD11. [Related pubchem assays (depositor defined):AID2174, AID2202, AID2203, AID2233, AID504482, AID504498, AID504505, AID504507, AID504510, AID504520, AID504522, AID504892]; format: functional
Sequence of sn-1-specific diacylglycerol lipase ABHD11 (Q8K4F5 whole entry): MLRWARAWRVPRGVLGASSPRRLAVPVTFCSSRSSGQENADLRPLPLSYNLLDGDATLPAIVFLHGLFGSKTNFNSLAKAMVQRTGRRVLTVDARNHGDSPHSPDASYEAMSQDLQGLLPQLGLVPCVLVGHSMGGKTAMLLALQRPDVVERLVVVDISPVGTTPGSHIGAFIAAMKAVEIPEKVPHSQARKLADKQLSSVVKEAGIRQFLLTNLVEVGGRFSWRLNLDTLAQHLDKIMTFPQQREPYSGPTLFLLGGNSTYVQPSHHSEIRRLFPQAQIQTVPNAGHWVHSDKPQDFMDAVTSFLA

Sequence of Glucose-6-phosphate 1-dehydrogenase (P11413 whole entry, the tested form may be a part): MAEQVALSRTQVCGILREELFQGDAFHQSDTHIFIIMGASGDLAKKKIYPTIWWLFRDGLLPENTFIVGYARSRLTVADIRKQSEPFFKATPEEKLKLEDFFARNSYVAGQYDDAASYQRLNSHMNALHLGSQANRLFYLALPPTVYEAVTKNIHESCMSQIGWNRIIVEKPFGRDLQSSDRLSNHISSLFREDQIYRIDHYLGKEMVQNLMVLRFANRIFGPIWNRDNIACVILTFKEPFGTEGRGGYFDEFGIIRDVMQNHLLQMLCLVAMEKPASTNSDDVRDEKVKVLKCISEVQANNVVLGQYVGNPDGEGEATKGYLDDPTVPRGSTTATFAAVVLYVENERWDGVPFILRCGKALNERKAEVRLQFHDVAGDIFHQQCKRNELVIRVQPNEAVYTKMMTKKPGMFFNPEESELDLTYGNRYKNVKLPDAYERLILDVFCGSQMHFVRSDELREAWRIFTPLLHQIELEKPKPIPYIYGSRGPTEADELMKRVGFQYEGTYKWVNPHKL
Sequence of Paired box protein Pax-8 (Q06710 whole entry): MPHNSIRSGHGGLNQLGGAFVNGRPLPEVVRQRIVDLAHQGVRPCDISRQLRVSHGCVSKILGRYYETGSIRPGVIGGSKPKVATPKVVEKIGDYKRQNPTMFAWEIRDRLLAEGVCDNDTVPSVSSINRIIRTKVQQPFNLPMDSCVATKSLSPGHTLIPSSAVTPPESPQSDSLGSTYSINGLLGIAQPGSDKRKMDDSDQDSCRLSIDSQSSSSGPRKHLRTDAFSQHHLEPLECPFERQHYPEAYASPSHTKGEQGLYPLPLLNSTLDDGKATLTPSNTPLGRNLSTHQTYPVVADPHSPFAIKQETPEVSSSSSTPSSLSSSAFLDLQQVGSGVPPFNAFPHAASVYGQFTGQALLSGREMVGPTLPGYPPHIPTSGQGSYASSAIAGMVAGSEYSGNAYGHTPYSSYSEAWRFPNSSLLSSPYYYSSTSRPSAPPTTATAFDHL
Sequence of Perilipin-1/ABHD5 (Q8WTS1 whole entry, the tested form may be a part): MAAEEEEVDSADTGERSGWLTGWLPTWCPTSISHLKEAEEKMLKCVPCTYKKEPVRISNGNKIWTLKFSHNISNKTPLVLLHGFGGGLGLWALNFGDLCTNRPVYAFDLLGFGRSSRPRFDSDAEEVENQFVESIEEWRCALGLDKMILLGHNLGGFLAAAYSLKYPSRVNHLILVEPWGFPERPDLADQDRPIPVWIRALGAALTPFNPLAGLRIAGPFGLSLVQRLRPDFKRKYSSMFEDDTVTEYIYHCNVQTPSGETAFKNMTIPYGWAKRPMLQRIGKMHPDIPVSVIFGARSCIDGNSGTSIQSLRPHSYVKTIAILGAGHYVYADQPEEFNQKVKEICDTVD
Sequence of Perilipin-1/ABHD5 (O60240 whole entry, the tested form may be a part): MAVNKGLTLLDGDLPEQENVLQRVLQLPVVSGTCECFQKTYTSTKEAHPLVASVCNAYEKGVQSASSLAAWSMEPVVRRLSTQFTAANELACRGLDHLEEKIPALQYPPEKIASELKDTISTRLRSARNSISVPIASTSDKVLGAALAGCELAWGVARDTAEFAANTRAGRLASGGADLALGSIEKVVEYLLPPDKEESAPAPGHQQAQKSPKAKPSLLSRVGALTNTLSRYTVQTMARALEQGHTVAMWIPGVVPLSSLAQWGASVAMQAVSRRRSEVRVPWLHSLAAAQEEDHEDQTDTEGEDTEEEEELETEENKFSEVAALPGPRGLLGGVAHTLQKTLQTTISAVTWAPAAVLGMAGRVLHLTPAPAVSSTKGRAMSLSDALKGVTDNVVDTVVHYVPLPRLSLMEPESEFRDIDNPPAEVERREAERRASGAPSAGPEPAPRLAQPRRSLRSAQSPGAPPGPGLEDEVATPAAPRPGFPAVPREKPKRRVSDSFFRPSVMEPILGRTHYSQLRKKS
Sequence of Beta-arrestin-1 (P49407 whole entry): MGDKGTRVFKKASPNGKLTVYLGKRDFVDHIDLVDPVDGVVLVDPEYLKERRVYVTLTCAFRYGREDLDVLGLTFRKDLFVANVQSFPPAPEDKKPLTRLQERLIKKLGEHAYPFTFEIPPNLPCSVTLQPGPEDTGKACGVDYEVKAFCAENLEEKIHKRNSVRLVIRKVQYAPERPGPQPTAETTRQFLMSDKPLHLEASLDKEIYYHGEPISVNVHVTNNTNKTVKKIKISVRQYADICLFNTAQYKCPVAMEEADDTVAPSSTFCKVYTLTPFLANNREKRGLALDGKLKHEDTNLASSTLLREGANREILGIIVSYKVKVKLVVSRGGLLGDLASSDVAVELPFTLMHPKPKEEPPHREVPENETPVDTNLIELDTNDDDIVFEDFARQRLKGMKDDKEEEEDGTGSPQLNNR
Sequence of Voltage-gated inwardly rectifying potassium channel KCNH2 (Q12809 whole entry): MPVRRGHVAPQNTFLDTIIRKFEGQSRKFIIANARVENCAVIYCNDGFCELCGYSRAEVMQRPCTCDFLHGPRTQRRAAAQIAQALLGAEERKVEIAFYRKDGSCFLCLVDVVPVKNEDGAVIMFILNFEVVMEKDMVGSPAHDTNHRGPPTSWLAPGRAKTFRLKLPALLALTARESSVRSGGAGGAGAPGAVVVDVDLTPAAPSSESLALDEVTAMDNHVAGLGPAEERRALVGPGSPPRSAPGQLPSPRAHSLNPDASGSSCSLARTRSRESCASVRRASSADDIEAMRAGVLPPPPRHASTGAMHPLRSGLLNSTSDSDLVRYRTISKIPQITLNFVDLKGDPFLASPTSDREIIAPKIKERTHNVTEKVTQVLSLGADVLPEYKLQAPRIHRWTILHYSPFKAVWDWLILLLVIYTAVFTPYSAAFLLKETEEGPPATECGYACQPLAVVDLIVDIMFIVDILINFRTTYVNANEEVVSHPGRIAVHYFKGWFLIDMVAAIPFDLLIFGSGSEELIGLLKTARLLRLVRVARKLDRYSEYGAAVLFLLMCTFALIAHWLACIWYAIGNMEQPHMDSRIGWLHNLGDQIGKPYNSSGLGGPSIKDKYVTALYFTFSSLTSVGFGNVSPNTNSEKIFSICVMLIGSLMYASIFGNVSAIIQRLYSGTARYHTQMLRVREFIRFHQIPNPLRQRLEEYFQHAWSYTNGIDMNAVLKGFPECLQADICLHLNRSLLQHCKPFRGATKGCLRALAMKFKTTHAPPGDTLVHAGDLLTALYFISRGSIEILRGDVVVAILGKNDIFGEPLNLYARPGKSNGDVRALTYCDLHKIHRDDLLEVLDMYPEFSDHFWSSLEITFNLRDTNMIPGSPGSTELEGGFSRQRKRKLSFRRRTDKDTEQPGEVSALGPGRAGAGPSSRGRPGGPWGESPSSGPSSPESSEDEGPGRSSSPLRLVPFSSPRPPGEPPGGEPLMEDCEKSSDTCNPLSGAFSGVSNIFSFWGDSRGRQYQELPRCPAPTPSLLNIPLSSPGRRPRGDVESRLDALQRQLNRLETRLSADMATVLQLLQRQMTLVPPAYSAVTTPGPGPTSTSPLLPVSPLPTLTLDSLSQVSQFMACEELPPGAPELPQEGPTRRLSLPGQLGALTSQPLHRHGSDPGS
Sequence of Phosphoethanolamine/phosphocholine phosphatase (Q8TCT1 whole entry): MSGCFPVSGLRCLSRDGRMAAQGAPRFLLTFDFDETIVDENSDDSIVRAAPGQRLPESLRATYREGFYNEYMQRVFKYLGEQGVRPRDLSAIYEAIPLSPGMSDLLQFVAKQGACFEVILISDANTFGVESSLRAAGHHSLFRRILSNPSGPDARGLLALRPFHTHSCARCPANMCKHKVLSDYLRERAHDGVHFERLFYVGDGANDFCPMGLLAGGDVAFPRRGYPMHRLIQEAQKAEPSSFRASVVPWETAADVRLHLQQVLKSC
Sequence of 1-acylglycerol-3-phosphate O-acyltransferase ABHD5/Perilipin-5 (Q00G26 whole entry, the tested form may be a part): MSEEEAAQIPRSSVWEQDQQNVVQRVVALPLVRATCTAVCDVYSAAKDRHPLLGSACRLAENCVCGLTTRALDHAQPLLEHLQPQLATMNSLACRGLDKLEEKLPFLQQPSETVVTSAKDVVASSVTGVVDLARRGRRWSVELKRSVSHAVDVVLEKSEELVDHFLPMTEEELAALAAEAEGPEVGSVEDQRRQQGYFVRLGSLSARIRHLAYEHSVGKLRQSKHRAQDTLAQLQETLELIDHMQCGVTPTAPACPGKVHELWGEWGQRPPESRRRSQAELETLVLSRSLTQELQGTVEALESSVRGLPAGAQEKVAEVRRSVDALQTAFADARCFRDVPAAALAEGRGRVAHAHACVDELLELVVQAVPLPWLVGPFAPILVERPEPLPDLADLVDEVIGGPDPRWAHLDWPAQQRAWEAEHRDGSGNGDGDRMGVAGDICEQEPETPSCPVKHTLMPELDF
Sequence of 1-acylglycerol-3-phosphate O-acyltransferase ABHD5/Perilipin-5 (Q8WTS1 whole entry, the tested form may be a part): as the sequence (Q8WTS1 whole entry, the tested form may be a part) above
Sequence of Eukaryotic translation initiation factor 4E (P63073 whole entry): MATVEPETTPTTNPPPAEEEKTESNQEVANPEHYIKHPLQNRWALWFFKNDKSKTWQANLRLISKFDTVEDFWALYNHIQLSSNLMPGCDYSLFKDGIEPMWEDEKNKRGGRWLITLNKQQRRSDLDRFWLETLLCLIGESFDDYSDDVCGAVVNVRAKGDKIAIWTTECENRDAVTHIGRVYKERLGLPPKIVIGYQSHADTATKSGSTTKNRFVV

SMILES: O=c1c2ccccc2[se]n1-c1ccccc1 [EBSELEN]
- EC50 [1]: 1.1 µM (active)
- IC50 (Large T antigen): 13.9 µM (active)
- EC50 (Streptococcus): 0.975 µM (active)
- IC50 [2]: 13.2 µM (active)
- IC50 [3]: 1.1 µM (active)
- IC50 (Perilipin-1/ABHD5): 3.41 µM (active)
- IC50 [4]: 0.111 µM (active)
- EC50 (Hexokinase HKDC1): 38.8 µM (inactive)
- IC50 [5]: 1.15 µM (active)
- EC50 (Hexokinase-1): 41.9 µM (inactive)
- IC50 (Beta-arrestin-1): 1.52 µM (active)
- AC50 [6]: 35.5 µM (inconclusive)

SMILES: O=C(/C=C/c1ccccc1)Nc1cccc(C(=O)O)c1
- EC50 [7]: 1.73 µM (active)
- IC50 (Jurkat): 1.4 µM (active)
- IC50 [8]: > 80 µM (inactive)
- AC50 [9]: 1.52 µM (active)
- AC50 (A-375 [10]): > 35 µM (active)
- AC50 (A-375 [11]): > 35 µM (active)
- AC50 (Paired box protein Pax-8): 4.06 µM (active)
- AC50 [12]: 2.07 µM (active)
- AC50 [13]: 77.2 µM (active)
- AC50 [14]: 2.67 µM (active)
- AC50 [15]: > 52 µM (inactive)
- AC50 [16]: 49 µM (active)
- AC50 [17]: 0.833 µM (active)
- AC50 [18]: > 100 µM (inactive)
- AC50 [19]: > 100 µM (inactive)
- AC50 [20]: 0.592 µM (active)
- AC50 [21]: 32.2 µM (active)
- AC50 [22]: > 52 µM (inactive)

- IC50 [23]: 0.01 µM (active)
SMILES: CC(C)(C)C1CCN(C(=O)n2ncc(C(O)(c3ccccc3)c3ccccc3)n2)CC1
